The values that follow come from patent publication EP0308189B1, “Skin cleansing toilet bar with low moisture content” (THE PROCTER & GAMBLE COMPANY, priority 1987, dated 1989).

The data set has as its system skin epidermis.

Turning to Cocoyl Isethionate, the “Relative Skin Barrier Penetration Value” stood at 40 and the “Total mg Water Penetrating the Skin in 24 Hours” value is 60.3 ± 17.7 mg.
